Results taken from patent US4252808A, “β-Lactam antibacterial agents, their use in pharmaceutical compositions, the process for their preparation and intermediates for use in that process” (Beecham Group Limited, priority 1978, dated 1981).
Converted amounts (≈) assume the structure as drawn.

What was measured:
Assay type in all cases: cell-based
P. rettgeri = experiment: MIC, serial dilution in nutrient agar with 5% horse blood (Table 1); conditions: Providencia rettgeri, inoculum 0.001 ml undiluted broth culture
Procedure: (§1) | *Serial dilution in nutrient agar containing 5% horse blood, inoculum | 0.001 ml undiluted broth culture.

P. mirabilis C 977 [1] = experiment: as above; conditions: Proteus mirabilis, C977, inoculum 0.001 ml undiluted broth culture
Procedure: as §1

P. morganii = experiment: as above; conditions: Morganella morganii, inoculum 0.001 ml undiluted broth culture
Procedure: as §1

S. faecalis 1 [2] = experiment: as above; conditions: Enterococcus faecalis, inoculum 0.001 ml undiluted broth culture
Procedure: as §1

S. pyogenes CN 10 [3] = experiment: as above; conditions: Streptococcus pyogenes, CN10, inoculum 0.001 ml undiluted broth culture
Procedure: as §1

E. cloacae Nl [4] = experiment: as above; conditions: Enterobacter cloacae, inoculum 0.001 ml undiluted broth culture
Procedure: as §1

S. aureus Russell = experiment: as above; conditions: Staphylococcus aureus, inoculum 0.001 ml undiluted broth culture
Procedure: as §1

K. aerogenes A [5] = experiment: as above; conditions: Klebsiella aerogenes, inoculum 0.001 ml undiluted broth culture
Procedure: as §1

E. coli JT 4 = experiment: as above; conditions: Escherichia coli, JT4, inoculum 0.001 ml undiluted broth culture
Procedure: as §1

S. aureus Oxford [6] = experiment: as above; conditions: Staphylococcus aureus, inoculum 0.001 ml undiluted broth culture
Procedure: as §1

B. subtilis [7] = experiment: as above; conditions: Bacillus subtilis, inoculum 0.001 ml undiluted broth culture
Procedure: as §1

S. aureus 1517 [8] = experiment: as above; conditions: Staphylococcus aureus, inoculum 0.001 ml undiluted broth culture
Procedure: as §1

P. mirabilis C 977 [9] = experiment: MIC, serial dilution in DST agar with 10% horse blood (Table 2); conditions: Proteus mirabilis, C977, inoculum diluted 10^-4
Text: (§2) *Serial dilution in DST agar containing 10% horse blood, inoculum 0.001 m
(§3) broth culture diluted 10^-2 for Grampositive and 10^-4 for
(§4) Gramnegative organisms.

S. faecalis 1 [10] = experiment: as above; conditions: Enterococcus faecalis, inoculum diluted 10^-2
Text: as §2, §3, §4

S. pyogenes CN 10 [11] = experiment: as above; conditions: Streptococcus pyogenes, CN10, inoculum diluted 10^-2
Text: as §2, §3, §4

E. cloacae Nl [12] = experiment: as above; conditions: Enterobacter cloacae, inoculum diluted 10^-4
Text: as §2, §3, §4

S. aureues Russell = experiment: as above; conditions: Staphylococcus aureus, inoculum diluted 10^-2
Text: as §2, §3, §4

K. aerogenes A [13] = experiment: as above; conditions: Klebsiella aerogenes, inoculum diluted 10^-4
Text: as §2, §3, §4

P. morganii 1580 = experiment: as above; conditions: Morganella morganii, inoculum diluted 10^-4
Text: as §2, §3, §4

P. rettgeri WM 16 = experiment: as above; conditions: Providencia rettgeri, WM16, inoculum diluted 10^-4
Text: as §2, §3, §4

E. coli 0111 = experiment: as above; conditions: Escherichia coli, inoculum diluted 10^-4
Text: as §2, §3, §4

S. pneumoniae CN 33 = experiment: as above; conditions: Streptococcus pneumoniae, CN33, inoculum diluted 10^-2
Text: as §2, §3, §4

B. subtilis [14] = experiment: as above; conditions: Bacillus subtilis, inoculum diluted 10^-2
Text: as §2, §3, §4

S. aureus 1517 [15] = experiment: as above; conditions: Staphylococcus aureus, inoculum diluted 10^-2
Text: as §2, §3, §4

S. aureus Oxford [16] = experiment: as above; conditions: Staphylococcus aureus, inoculum diluted 10^-2
Text: as §2, §3, §4

| Structure (SMILES) | MIC (P. rettgeri) [µg/mL] | MIC (P. mirabilis C 977 [1]) [µg/mL] | MIC (P. morganii) [µg/mL] | MIC (S. faecalis 1 [2]) [µg/mL] | MIC (S. pyogenes CN 10 [3]) [µg/mL] | MIC (S. aureus Russell) [µg/mL] | MIC (K. aerogenes A [5]) [µg/mL] | MIC (E. coli JT 4) [µg/mL] | MIC (S. aureus Oxford [6]) [µg/mL] | MIC (B. subtilis [7]) [µg/mL] | MIC (S. aureus 1517 [8]) [µg/mL] | MIC (P. mirabilis C 977 [9]) [µg/mL] | MIC (S. faecalis 1 [10]) [µg/mL] | MIC (S. pyogenes CN 10 [11]) [µg/mL] | MIC (E. cloacae Nl [12]) [µg/mL] | MIC (S. aureues Russell) [µg/mL] | MIC (K. aerogenes A [13]) [µg/mL] | MIC (P. morganii 1580) [µg/mL] | MIC (P. rettgeri WM 16) [µg/mL] | MIC (E. coli 0111) [µg/mL] | also measured |
| --- | --- | --- | --- | --- | --- | --- | --- | --- | --- | --- | --- | --- | --- | --- | --- | --- | --- | --- | --- | --- | --- |
| Cc1nnc(SCC2=C(C(=O)O)N3C(=O)[C@@H](NC(=O)Cc4cccs4)[C@H]3n3nncc32)s1 [Compound 60, (3aR,4S) 4,5-Dihydro-5-oxo-8-[5-methyl(1,3,4-thiadiazol-2-yl)thiomethyl]-4-(2-thienylacetamido)-3aH-azeto[1,2-a]-v-triazolo[3,4-c]pyrimidine-7-carboxylic acid] | > 100 | > 100 | > 100 | > 100 | > 100 | > 100 | > 100 | > 100 | > 100 | 50 (≈ 102 µM) | > 100 | > 100 | 25 (≈ 51.1 µM) | 2.5 (≈ 5.11 µM) | > 100 | 25 (≈ 51.1 µM) | > 100 | > 100 | > 100 | > 100 | MIC (E. cloacae Nl [4]): > 100 µg/mL; MIC (S. pneumoniae CN 33): 0.5 µg/mL (≈ 1.02 µM); MIC (B. subtilis [14]): 5 µg/mL (≈ 10.2 µM); MIC (S. aureus 1517 [15]): 100 µg/mL (≈ 204 µM) |
| CC1=C(C(=O)O)N2C(=O)[C@@H](NC(=O)CC#N)[C@H]2n2nncc21 [Compound 49, (3aR,4S)-4,5-Dihydro-5-oxo-8-methyl-4-cyanoacetamido 3aH-azeto[1,2a]v-triazolo[3,4-c]pyrimidine-7-carboxylic acid] | – | – | – | – | – | – | – | – | – | – | – | 50 (≈ 165 µM) | 25 (≈ 82.7 µM) | 2.5 (≈ 8.27 µM) | > 100 | 25 (≈ 82.7 µM) | 100 (≈ 331 µM) | 100 (≈ 331 µM) | > 100 | 100 (≈ 331 µM) | MIC (S. aureus Oxford [16]): 5 µg/mL (≈ 16.5 µM); MIC (S. pneumoniae CN 33): 5 µg/mL (≈ 16.5 µM); MIC (B. subtilis [14]): 2.5 µg/mL (≈ 8.27 µM); MIC (S. aureus 1517 [15]): 100 µg/mL (≈ 331 µM) |
| CC1=C(C(=O)O)N2C(=O)[C@@H](NC(=O)Cc3cccs3)[C@H]2n2nncc21 [Compound 43, (3aR,4S) 4,5-Dihydro-5-oxo-8-methyl-4-(2-thienylacetamido)-3aH-azeto[1,2-a]y-triazolo[3,4-c]pyrimidine-7-carboxylic acid] | > 100 | 10 (≈ 27.8 µM) | > 100 | 2.5 (≈ 6.96 µM) | < 0.2 | 2.5 (≈ 6.96 µM) | 50 (≈ 139 µM) | > 100 | 1 (≈ 2.78 µM) | < 0.2 | 2.5 (≈ 6.96 µM) | 2.5 (≈ 6.96 µM) | 5 (≈ 13.9 µM) | ≤ 0.2 | > 100 | 1 (≈ 2.78 µM) | 2.5 (≈ 6.96 µM) | 2.5 (≈ 6.96 µM) | > 100 | 10 (≈ 27.8 µM) | MIC (S. aureus Oxford [16]): 2.5 µg/mL (≈ 6.96 µM); MIC (S. pneumoniae CN 33): ≤ 0.2 µg/mL; MIC (B. subtilis [14]): ≤ 0.2 µg/mL; MIC (S. aureus 1517 [15]): 5 µg/mL (≈ 13.9 µM) |
| CC(=O)OCC1=C(C(=O)O)N2C(=O)[C@@H](NC(=O)Cc3cccs3)[C@H]2n2nncc21 [Compound 57, (3aR,4S) 4,5-Dihydro-5-oxo-8-acetoxymethyl-4-(2-thienylacetamido)-3aH-azeto[1,2-a]v-triazolo[3,4-c]pyrimidine-7-carboxylic acid] | > 100 | > 100 | > 100 | > 100 | > 100 | > 100 | > 100 | > 100 | > 100 | 100 (≈ 240 µM) | > 100 | – | – | – | – | – | – | – | – | – | MIC (E. cloacae Nl [4]): > 100 µg/mL |
| CC1=C(C(=O)O)N2C(=O)[C@@H](NC(=O)Cn3ncnn3)[C@H]2n2nncc21 [Compound 47, (3aR,4S)-4,5-Dihydro-5-oxo-8-methyl-4-(2-tetrazolylacetamido)-3aH-azeto[1,2-a]v-triazolo[3,4-c]pyrimidine-7-carboxylic acid] | > 100 | > 100 | > 100 | 50 (≈ 145 µM) | 1 (≈ 2.9 µM) | 5 (≈ 14.5 µM) | > 100 | > 100 | 2.5 (≈ 7.24 µM) | 0.5 (≈ 1.45 µM) | > 100 | – | – | – | – | – | – | – | – | – | MIC (E. cloacae Nl [4]): > 100 µg/mL |
| CO/N=C(\C(=O)N[C@@H]1C(=O)N2C(C(=O)O)=C(C)c3cnnn3[C@H]12)c1ccco1 [Compound 50, (3aR,4R)-4,5-Dihydro-5-oxo-8-methyl-4-[(2-methoxyimino-2-fur-2'-yl)acetamido]-3aH-azeto[1,2-a]v-triazolo[3,4-c]pyrimidine-7-carboxylic acid] | – | – | – | – | – | – | – | – | – | – | – | 50 (≈ 129 µM) | > 100 | 1 (≈ 2.59 µM) | > 100 | 25 (≈ 64.7 µM) | 100 (≈ 259 µM) | 100 (≈ 259 µM) | > 100 | 100 (≈ 259 µM) | MIC (S. pneumoniae CN 33): 10 µg/mL (≈ 25.9 µM); MIC (B. subtilis [14]): 5 µg/mL (≈ 12.9 µM); MIC (S. aureus 1517 [15]): 100 µg/mL (≈ 259 µM) |
